{"source": "ChEMBL document CHEMBL3856231", "about": "(J Med Chem, 2016)", "key": {"[1]": {"assay": "Tmax in Sprague-Dawley rat at 5 mg/kg, po by LC/MS/MS analysis", "type": "ADME, organism-based", "settings": "in vivo"}, "[2]": {"assay": "Cytotoxicity against human KARPAS299 cells expressing NPM-ALK assessed as cell growth inhibition", "type": "functional, cell-based", "settings": "KARPAS-299"}, "SUP-M2": {"test_system": "SUP-M2", "assay": "Antitumor activity against human SUP-M2 cells expressing NPM-ALK xenografted in SCID-Beige mouse assessed as tumor regression at 30 mg/kg, po qd administered for 12 days measured during compound dosing", "type": "functional, organism-based"}, "[3]": {"assay": "Cmax in Sprague-Dawley rat brain at 30 mg/kg, po by LC/MS/MS analysis", "type": "ADME, organism-based", "parameters": "dose 30 mg/kg, route oral"}, "[4]": {"target": "Voltage-gated inwardly rectifying potassium channel KCNH2 (Homo sapiens, UniProt Q12809)", "sequence (Q12809 whole entry)": "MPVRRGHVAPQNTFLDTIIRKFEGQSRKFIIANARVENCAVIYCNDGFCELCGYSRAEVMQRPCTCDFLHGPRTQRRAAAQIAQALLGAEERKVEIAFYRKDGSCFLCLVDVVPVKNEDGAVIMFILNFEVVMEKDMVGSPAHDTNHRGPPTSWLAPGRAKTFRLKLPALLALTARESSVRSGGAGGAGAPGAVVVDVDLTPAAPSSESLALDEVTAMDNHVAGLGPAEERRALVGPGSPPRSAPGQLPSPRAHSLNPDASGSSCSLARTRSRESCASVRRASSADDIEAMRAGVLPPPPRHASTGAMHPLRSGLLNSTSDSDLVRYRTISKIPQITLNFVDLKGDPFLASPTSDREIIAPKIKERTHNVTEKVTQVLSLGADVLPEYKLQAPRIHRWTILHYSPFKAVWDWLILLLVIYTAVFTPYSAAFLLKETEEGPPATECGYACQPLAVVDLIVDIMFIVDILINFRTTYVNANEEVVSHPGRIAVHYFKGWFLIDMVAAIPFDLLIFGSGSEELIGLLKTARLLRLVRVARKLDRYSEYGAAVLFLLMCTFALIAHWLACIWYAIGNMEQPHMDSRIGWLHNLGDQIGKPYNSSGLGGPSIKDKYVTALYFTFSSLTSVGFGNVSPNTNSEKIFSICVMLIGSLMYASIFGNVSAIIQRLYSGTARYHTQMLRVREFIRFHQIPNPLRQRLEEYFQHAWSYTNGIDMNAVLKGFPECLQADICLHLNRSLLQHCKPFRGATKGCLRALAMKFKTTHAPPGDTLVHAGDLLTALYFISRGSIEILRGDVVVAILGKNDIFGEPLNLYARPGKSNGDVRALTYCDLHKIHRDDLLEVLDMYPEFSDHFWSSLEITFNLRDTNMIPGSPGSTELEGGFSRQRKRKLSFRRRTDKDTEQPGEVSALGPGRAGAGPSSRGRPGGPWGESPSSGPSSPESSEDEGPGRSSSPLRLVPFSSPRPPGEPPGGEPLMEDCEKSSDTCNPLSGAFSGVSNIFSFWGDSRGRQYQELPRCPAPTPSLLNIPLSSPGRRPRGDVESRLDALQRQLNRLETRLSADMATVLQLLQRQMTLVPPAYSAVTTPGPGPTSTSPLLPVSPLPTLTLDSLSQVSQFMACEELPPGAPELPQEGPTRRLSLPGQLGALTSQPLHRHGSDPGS", "assay": "Inhibition of human ERG"}, "[5]": {"assay": "Drug level in plasma of FAK expressing human CWR22 cells xenografted Nu/Nu mouse at 55 mg/kg, po administered as single dose measured at 24 hrs by LC-MS/MS analysis", "type": "ADME, organism-based"}, "[6]": {"assay": "Antitumor activity against human CTG-0785 cells expressing activated FAK xenografted in mouse assessed as tumor growth inhibition at 55 mg/kg, po bid administered for 13 days measured during compound dosing", "type": "functional", "settings": "CTG-0785, po, 312 h, read-out: TGI"}, "IBC [7]": {"test_system": "IBC", "assay": "Antitumor activity against human IBC cells xenografted in SCID mouse", "type": "functional"}, "[8]": {"assay": "Drug level in plasma of NPM-ALK expressing human SUP-M2 cells xenografted mouse at 30 mg/kg, po administered as single dose measured at 12 hrs by LC-MS/MS analysis", "type": "ADME, organism-based"}, "[9]": {"assay": "Ratio of total drug level in Sprague-Dawley rat brain to plasma at 30 mg/kg, po", "type": "ADME, organism-based", "settings": "brain and plasma, read-out: BPR"}, "[10]": {"assay": "Tmax in CD-1 mouse at 10 mg/kg, po by LC/MS/MS analysis", "type": "ADME, organism-based", "settings": "in vivo"}, "[11]": {"assay": "Cmax in Sprague-Dawley rat at 5 mg/kg, po by LC/MS/MS analysis", "type": "ADME, organism-based", "parameters": "dose 5 mg/kg, route oral", "settings": "in vivo"}, "[12]": {"assay": "Dose normalized AUC in CD-1 mouse at 10 mg/kg, po by LC/MS/MS analysis", "type": "ADME, organism-based", "settings": "in vivo"}, "IBC [13]": {"test_system": "IBC", "assay": "Cytotoxicity against human IBC cells assessed as reduction in cell proliferation", "type": "functional, cell-based"}, "[14]": {"assay": "(§1) Cytotoxicity against human NCI-H3122 cells expressing EML4-ALK assessed as cell growth inhibition", "type": "functional, cell-based"}, "NCI-H3122": {"test_system": "NCI-H3122", "assay": "as §1", "type": "functional, cell-based"}, "[15]": {"assay": "Volume of distribution in CD-1 mouse at 1 mg/kg, iv by LC/MS/MS analysis", "type": "ADME, organism-based", "settings": "in vivo"}, "[16]": {"assay": "Drug level in tumor of FAK expressing human CWR22 cells xenografted Nu/Nu mouse at 55 mg/kg, po administered as single dose measured at 24 hrs by LC-MS/MS analysis", "type": "ADME, organism-based, Neoplasm", "settings": "read-out: Drug uptake"}, "[17]": {"assay": "AUC (0 to 48 hrs) in Sprague-Dawley rat plasma at 30 mg/kg, po by LC/MS/MS analysis", "type": "ADME, organism-based", "parameters": "time < 48 hr, dose 30 mg/kg, route oral"}, "[18]": {"assay": "Cmax in CD-1 mouse at 10 mg/kg, po by LC/MS/MS analysis", "type": "ADME, organism-based", "parameters": "dose 10 mg/kg, route oral", "settings": "in vivo"}, "[19]": {"assay": "Drug level in plasma of FAK expressing human CWR22 cells xenografted Nu/Nu mouse at 55 mg/kg, po administered as single dose measured at 12 hrs by LC-MS/MS analysis", "type": "ADME, organism-based"}, "[20]": {"assay": "Drug level in plasma of NPM-ALK expressing human SUP-M2 cells xenografted mouse at 30 mg/kg, po administered as single dose measured at 6 hrs by LC-MS/MS analysis", "type": "ADME, organism-based"}, "[21]": {"assay": "Half life in rat liver microsomes by LC/MS/MS analysis", "type": "ADME"}, "[22]": {"assay": "Half life in CD-1 mouse liver microsomes by LC/MS/MS analysis", "type": "ADME"}, "[23]": {"assay": "Dose normalized AUC in Sprague-Dawley rat at 5 mg/kg, po by LC/MS/MS analysis", "type": "ADME, organism-based", "settings": "in vivo"}, "[24]": {"assay": "Clearance in CD-1 mouse at 1 mg/kg, iv by LC/MS/MS analysis", "type": "ADME, organism-based", "settings": "in vivo"}, "[25]": {"assay": "Oral bioavailability in CD-1 mouse at 10 mg/kg by LC/MS/MS analysis", "type": "ADME, organism-based", "settings": "in vivo"}, "[26]": {"assay": "Drug level in tumor of NPM-ALK expressing human SUP-M2 cells xenografted mouse at 30 mg/kg, po administered as single dose measured at 12 hrs by LC-MS/MS analysis", "type": "ADME, organism-based, Neoplasm", "settings": "read-out: Drug uptake"}, "[27]": {"assay": "Apparent permeability from apical to basolateral side in human Caco2 cells", "type": "ADME, cell-based", "settings": "Caco-2"}, "[28]": {"assay": "Clearance in cynomolgus monkey at 1 mg/kg, iv by LC/MS/MS analysis", "type": "ADME, organism-based, Macaca fascicularis", "settings": "in vivo"}, "[29]": {"assay": "Drug level in tumor of NPM-ALK expressing human SUP-M2 cells xenografted mouse at 30 mg/kg, po administered as single dose measured at 24 hrs by LC-MS/MS analysis", "type": "ADME, organism-based, Neoplasm", "settings": "read-out: Drug uptake"}, "[30]": {"assay": "Oral bioavailability in cynomolgus monkey at 10 mg/kg by LC/MS/MS analysis", "type": "ADME, organism-based, Macaca fascicularis", "settings": "in vivo"}, "[31]": {"assay": "Antitumor activity against human HCC827 cells expressing activated FAK xenografted in SCID-Beige mouse assessed as incidence of partial tumor regression at 55 mg/kg, po bid administered for 28 days", "type": "functional"}, "[32]": {"assay": "Drug level in tumor of FAK expressing human CWR22 cells xenografted Nu/Nu mouse at 55 mg/kg, po administered as single dose measured at 12 hrs by LC-MS/MS analysis", "type": "ADME, organism-based, Neoplasm", "settings": "read-out: Drug uptake"}, "[33]": {"assay": "Drug level in tumor of FAK expressing human CWR22 cells xenografted Nu/Nu mouse at 55 mg/kg, po administered as single dose measured at 6 hrs by LC-MS/MS analysis", "type": "ADME, organism-based, Neoplasm", "settings": "read-out: Drug uptake"}, "[34]": {"assay": "Antitumor activity against human CTG-0142 cells expressing activated FAK xenografted in mouse assessed as tumor growth inhibition at 55 mg/kg, po bid administered for 28 days measured during compound dosing", "type": "functional", "settings": "CTG-0142, po, 672 h, read-out: TGI"}, "[35]": {"target": "ALK tyrosine kinase receptor (Homo sapiens, UniProt Q9UM73)", "sequence (Q9UM73 19-1620 limits assumed)": "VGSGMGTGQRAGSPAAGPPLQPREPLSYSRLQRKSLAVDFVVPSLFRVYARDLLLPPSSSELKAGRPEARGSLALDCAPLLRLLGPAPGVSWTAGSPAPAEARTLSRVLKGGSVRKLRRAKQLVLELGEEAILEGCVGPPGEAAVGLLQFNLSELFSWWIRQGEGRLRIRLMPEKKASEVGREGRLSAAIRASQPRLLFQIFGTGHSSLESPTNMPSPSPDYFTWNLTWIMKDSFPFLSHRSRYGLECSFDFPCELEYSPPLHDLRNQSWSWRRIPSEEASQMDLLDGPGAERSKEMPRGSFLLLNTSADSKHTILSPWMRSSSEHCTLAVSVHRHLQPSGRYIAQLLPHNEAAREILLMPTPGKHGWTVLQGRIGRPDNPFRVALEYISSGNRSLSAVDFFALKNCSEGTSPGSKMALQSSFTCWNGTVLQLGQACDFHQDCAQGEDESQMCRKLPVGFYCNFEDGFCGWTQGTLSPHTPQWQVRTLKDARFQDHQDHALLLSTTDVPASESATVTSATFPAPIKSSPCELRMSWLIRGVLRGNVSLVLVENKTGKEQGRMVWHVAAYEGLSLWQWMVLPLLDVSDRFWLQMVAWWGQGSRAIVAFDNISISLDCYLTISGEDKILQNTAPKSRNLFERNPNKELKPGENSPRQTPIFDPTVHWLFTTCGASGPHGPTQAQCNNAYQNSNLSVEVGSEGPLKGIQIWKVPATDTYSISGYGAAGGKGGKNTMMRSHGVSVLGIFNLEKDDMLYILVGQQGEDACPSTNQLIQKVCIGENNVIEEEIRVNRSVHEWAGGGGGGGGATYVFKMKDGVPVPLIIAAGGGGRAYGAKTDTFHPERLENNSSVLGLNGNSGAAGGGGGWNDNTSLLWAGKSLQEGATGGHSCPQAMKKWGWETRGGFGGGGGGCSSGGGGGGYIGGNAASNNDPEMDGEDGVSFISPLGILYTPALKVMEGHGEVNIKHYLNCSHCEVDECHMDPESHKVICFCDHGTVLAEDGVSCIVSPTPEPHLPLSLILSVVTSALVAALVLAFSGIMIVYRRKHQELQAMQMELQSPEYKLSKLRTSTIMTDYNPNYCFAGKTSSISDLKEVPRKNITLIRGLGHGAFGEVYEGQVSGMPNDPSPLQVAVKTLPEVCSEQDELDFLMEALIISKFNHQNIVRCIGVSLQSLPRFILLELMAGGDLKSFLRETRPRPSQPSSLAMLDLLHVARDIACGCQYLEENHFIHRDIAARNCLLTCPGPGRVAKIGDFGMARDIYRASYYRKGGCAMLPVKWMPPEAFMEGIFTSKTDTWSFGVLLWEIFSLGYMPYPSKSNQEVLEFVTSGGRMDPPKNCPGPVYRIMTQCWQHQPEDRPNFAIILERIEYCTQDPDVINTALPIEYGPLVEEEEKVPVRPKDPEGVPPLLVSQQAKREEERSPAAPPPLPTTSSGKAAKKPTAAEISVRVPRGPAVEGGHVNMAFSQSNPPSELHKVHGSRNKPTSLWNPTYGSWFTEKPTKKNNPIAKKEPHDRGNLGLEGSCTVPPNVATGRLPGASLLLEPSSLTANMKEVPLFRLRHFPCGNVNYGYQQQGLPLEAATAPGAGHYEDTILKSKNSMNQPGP", "settings": "1 uM", "description": "Inhibition of human ALK (1088 to 1409 residues) expressed in mammalian system at 1 uM by KINOMEscan assay"}, "[36]": {"assay": "Half life in cynomolgus monkey at 1 mg/kg, iv by LC/MS/MS analysis", "type": "ADME, organism-based, Macaca fascicularis", "settings": "in vivo"}, "[37]": {"assay": "Half life in CD-1 mouse at 1 mg/kg, iv by LC/MS/MS analysis", "type": "ADME, organism-based", "settings": "in vivo"}, "HCC827": {"test_system": "HCC827", "assay": "Antitumor activity against human HCC827 cells expressing activated FAK xenografted in SCID-Beige mouse assessed as tumor growth inhibition at 30 mg/kg, po bid administered for 28 days", "type": "functional, organism-based"}, "[38]": {"assay": "Cmax in cynomolgus monkey at 10 mg/kg, po by LC/MS/MS analysis", "type": "ADME, organism-based, Macaca fascicularis", "parameters": "dose 10 mg/kg, route oral", "settings": "in vivo"}}, "note": "Activity calls are given as the source filed them. The rule behind the calls is not given here."}
{"smiles": "CNC(=O)c1ccccc1Nc1nc(Nc2ccc3c(c2OC)CCC[C@H](N2CCN(CCO)CC2)C3)ncc1Cl", "note": "[CEP-37440]", "values": [{"measurement": "Tmax", "setting": "[1]", "result": 3.3, "unit": "h"}, {"measurement": "IC50", "setting": "[2]", "result": 0.131, "unit": "µM"}, {"measurement": "Activity", "setting": "SUP-M2", "result": "Active"}, {"measurement": "Cmax", "setting": "[3]", "result": 3160, "unit": "ng/g"}, {"measurement": "IC50", "setting": "[4]", "result": "> 10", "unit": "µM"}, {"measurement": "concentration at 24 h", "setting": "[5]", "result": 1.19, "unit": "µg/mL"}, {"measurement": "inhibition in vivo at 55 mg/kg", "setting": "[6]", "result": 70, "unit": "%"}, {"measurement": "Activity", "setting": "IBC [7]", "result": "Dose-dependent effect"}, {"measurement": "concentration at 12 h", "setting": "[8]", "result": 4.03, "unit": "µg/mL"}, {"measurement": "Kp", "setting": "[9]", "result": "1.5 to 2"}, {"measurement": "Tmax", "setting": "[10]", "result": 2, "unit": "h"}, {"measurement": "Cmax", "setting": "[11]", "result": 1.34, "unit": "µg/mL"}, {"measurement": "AUC/dose", "setting": "[12]", "result": 1643, "unit": "ng·h/mL"}, {"measurement": "growth inhibition (GI)", "setting": "IBC [13]", "result": "Dose-dependent effect"}, {"measurement": "IC50", "setting": "[14]", "result": 1.78, "unit": "µM"}, {"measurement": "growth inhibition (GI)", "setting": "NCI-H3122", "result": "Dose-dependent effect"}, {"measurement": "Vd", "setting": "[15]", "result": 2.7, "unit": "L/kg"}, {"measurement": "concentration at 24 h", "setting": "[16]", "result": 8680, "unit": "ng/g"}, {"measurement": "AUC(0-t) at 48 h", "setting": "[17]", "result": 31.5, "unit": "µg·h/mL"}, {"measurement": "Cmax", "setting": "[18]", "result": 1.53, "unit": "µg/mL"}, {"measurement": "concentration at 12 h", "setting": "[19]", "result": 0.541, "unit": "µg/mL"}, {"measurement": "concentration at 6 h", "setting": "[20]", "result": 3.35, "unit": "µg/mL"}, {"measurement": "half-life", "setting": "[21]", "result": 0.667, "unit": "h"}, {"measurement": "half-life", "setting": "[22]", "result": 0.667, "unit": "h"}, {"measurement": "AUC/dose", "setting": "[23]", "result": 1672, "unit": "ng·h/mL"}, {"measurement": "clearance", "setting": "[24]", "result": 0.6, "unit": "L/h/kg"}, {"measurement": "bioavailability", "setting": "[25]", "result": 102, "unit": "%"}, {"measurement": "concentration at 12 h", "setting": "[26]", "result": 8580, "unit": "ng/g"}, {"measurement": "Papp A→B", "setting": "[27]", "result": "> 10", "unit": "nm/s"}, {"measurement": "clearance", "setting": "[28]", "result": 1.8, "unit": "L/h/kg"}, {"measurement": "concentration at 24 h", "setting": "[29]", "result": 8200, "unit": "ng/g"}, {"measurement": "bioavailability", "setting": "[30]", "result": 50, "unit": "%"}, {"measurement": "Activity", "setting": "[31]", "result": 60, "unit": "%"}, {"measurement": "concentration at 12 h", "setting": "[32]", "result": 3810, "unit": "ng/g"}, {"measurement": "concentration at 6 h", "setting": "[33]", "result": 8680, "unit": "ng/g"}, {"measurement": "inhibition in vivo at 55 mg/kg", "setting": "[34]", "result": 75, "unit": "%"}, {"measurement": "inhibition", "setting": "[35]", "result": "> 90", "unit": "%"}, {"measurement": "half-life", "setting": "[36]", "result": 5.4, "unit": "h"}, {"measurement": "half-life", "setting": "[37]", "result": 3, "unit": "h"}, {"measurement": "TGI", "setting": "HCC827", "result": "Active"}, {"measurement": "Cmax", "setting": "[38]", "result": 0.239, "unit": "µg/mL"}]}
